According to patent publication US5834429A, “Small peptides which inhibit binding to T-4 receptors and act as immunogens” (priority 1993, dated 1998):

Key:
[1] = system: HTLV-III virus (HIV); assay: Blockade of viral infection of human T cells (reverse transcriptase activity); assay type: cell-based; settings: FIG. 3; for rank order of potencies in inhibiting viral infectivity: four peptides
Protocol: Separation of T-Lymphocyte Subsets. Subsets of T cells were obtained by treatment of PERCOLL density-purified peripheral blood T cells with specific monoclonal antibodies (T4 or T8) at 10 μg/ml. The treated cells were then panned (21) on a plastic Petri dish that was coated with goat [F(ab')2 ] anti-mouse immunoglobulin (Sero Lab, Eastbury, Mass.) for 30 min at 4° C. The nonadherent cells were then removed, washed, and analyzed for reactivity by flow cytometry. The separated T4 and T8 cell populations have <5% contamination of other T-cell subsets. Cells were then cultured with phytohemagglutinin (1 μg/ml) for 72 hr and exposed to HIV as described below. Infected cells were phenotypically characterized when cytotoxicity assays were performed.
Virus Infection. The HTLV-III virus used for infection was isolated from an interleukin 2 (IL-2)-dependent cultured T-cell line established from fresh AIDS patient material and passaged into HuT 78, a permissive IL-2-independent cell line.

[2] = system: T4 antigen (gp120 receptor) on fresh rat hippocampal membranes; assay: Displacement of specific 125I-gp120 binding to brain membranes; settings: for potency compared with peptide T (in words): FIG. 3; for rank order of potencies in inhibiting receptor binding: four peptides
Protocol: HTLV-IIIb isolate of HIV was propaged in H9 cells, and the gp120 was isolated by immunoaffinity chromatography and preparative NaDodSO4 /PAGE. Purified gp120 was labeled with ^125 I by the chloramine-T method.
Fresh human, monkey, and rat hippocampus were quickly homogenized (POLYTRON, Brinkmann Instruments) in 100 vol of ice-cold 50 mM Hepes (pH 7.4). The membranes collected by centrifugation (15,000×g) were washed in the original buffer volume and were used fresh or stored at -70° C. Before use, brain membranes and highly purified T cells (ref. 16; gift of Larry Wahl) were preincubated for 15-30 min in phosphate-buffered saline (PBS). Membranes derived from 2 mg (initial wet weight) of brain (.chi.100 μg of protein) were incubated with 28,000 cpm of ^125 I-gp120 for 1 hr at 37° C. in 200 μl (final volume) of 50 mM Hepes containing 0.1% bovine serum albumin and the peptidase inhibitors bacitracin (0.005%), aprotinin (0.005%), leupeptin (0.001%), and chymostatin (0.001%). Incubations were rapidly vacuum-filtered and counted to determine the receptor-bound material.

[3] = target: T4 viral receptors (Homo sapiens, UniProt P01730); assay: Activity of cysteine-extended core peptide (test not specified)

Molecule | rank order of potencies in inhibiting viral infectivity [1] | potency compared with peptide T (in words) [2] | rank order of potencies in inhibiting receptor binding [2] | blockade of viral infectivity (in words) ([1]; human T cells) | inhibition of gp120 binding to brain membranes (in words) [2] | concentration range at which 125I-gp120 binding is significantly inhibited ([2]; fresh rat hippocampal membranes, FIG. 2C) | activity (in words) [3]
C[C@@H](N)C(=O)N[C@@H](CO)C(=O)N[C@H](C(=O)N[C@H](C(=O)N[C@H](C(=O)N[C@@H](CC(N)=O)C(=O)N[C@@H](Cc1ccc(O)cc1)C(=O)N[C@H](C(N)=O)[C@@H](C)O)[C@@H](C)O)[C@@H](C)O)[C@@H](C)O [D-[Ala]1-peptide T-amide] | D-[Ala]1 -peptide T-amide>D-[Ala]1 -peptide T>peptide T>D-[Thr]8 -peptide T-amide | somewhat greater potency | D-[Ala]1 -peptide T-amide>D-[Ala]1 -peptide T>peptide T>D-[Thr]8 -peptide T-amide |  |  |  | 
C[C@@H](N)C(=O)N[C@@H](CO)C(=O)N[C@H](C(=O)N[C@H](C(=O)N[C@H](C(=O)N[C@@H](CC(N)=O)C(=O)N[C@@H](Cc1ccc(O)cc1)C(=O)N[C@H](C(=O)O)[C@@H](C)O)[C@@H](C)O)[C@@H](C)O)[C@@H](C)O [D-[Ala]1-peptide T] | D-[Ala]1 -peptide T-amide>D-[Ala]1 -peptide T>peptide T>D-[Thr]8 -peptide T-amide | consistently more potent | D-[Ala]1 -peptide T-amide>D-[Ala]1 -peptide T>peptide T>D-[Thr]8 -peptide T-amide |  |  |  | 
C[C@H](N)C(=O)N[C@@H](CO)C(=O)N[C@H](C(=O)N[C@H](C(=O)N[C@H](C(=O)N[C@@H](CC(N)=O)C(=O)N[C@@H](Cc1ccc(O)cc1)C(=O)N[C@H](C(=O)O)[C@@H](C)O)[C@@H](C)O)[C@@H](C)O)[C@@H](C)O [peptide T] | D-[Ala]1 -peptide T-amide>D-[Ala]1 -peptide T>peptide T>D-[Thr]8 -peptide T-amide |  | D-[Ala]1 -peptide T-amide>D-[Ala]1 -peptide T>peptide T>D-[Thr]8 -peptide T-amide | blocked | inhibit binding of gp 120 to the brain membranes | ~0.1 nM | 
CYS-THR-THR-ASN-TYR-THR-CYS (CTTNYTC; printed: CYS-THR-THR-ASN-TYR-THR-CYS) |  |  |  |  |  |  | active
substance P [1-8]: irrelevant octapeptide substance P [1-8] (RPKPQQFF; Substance P; UniProt P20366 58-65, looked up, fragment) [reference compound] |  |  |  |  | not |  | 
